Experimental data taken from patent US20090054346A1, “ELASTIN PRODUCTION-ENHANCING AGENTS” (Rohto Pharmaceutical Co., Ltd., priority 2006, published 2009).
Peptide text beside a SMILES is read from it.

System: Normal human skin-derived fibroblasts (CRL-1836)
Assay: Microscopic observation of fibroblasts after 72 hours of culture (cell count, morphology)
Type: cell-based
Conditions: 1000 μg/ml peptide
Description: Normal human skin-derived fibroblasts (CRL-1836; ATCC) were cultured in 60-mm dishes. More specifically, the cells were plated in dishes at a density of 2500 cells/cm^2, and cultured until subconfluent at 37° C. under 5% carbon dioxide gas and 95% air for 6 days. 3 ml of Dulbecco's Modified Eagle Medium (DMEM) supplemented with […] fetal bovine serum (FBS) was used in the culture. Then, the culture medium was changed to the same medium without FBS (namely, serum-free medium), and the culture was continued for 1 day. Next, the culture medium was changed to 3 ml of serum-free medium supplemented with 1000 μg/ml of the LEHA peptide prepared in Example 1, and the cells were cultured for 72 hours. Meanwhile, the culture in which the medium was changed to 3 ml of serum-free culture medium without the LEHA peptide was used as a control.
After 72 hours of culture, the cells in the dishes containing the LEHA peptide and the control dishes were observed under a microscope.

CC(C)C[C@H](N)C(=O)N[C@@H](CCC(=O)O)C(=O)N[C@@H](Cc1c[nH]cn1)C(=O)N[C@@H](C)C(=O)O [LEHA peptide, Leu-Glu-His-Ala] (H-LEHA-OH)
cell counts versus control dishes: not significantly different
morphological abnormality of the cells: no morphological abnormality was observed
